According to PubChem BioAssay (NCI):
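A five-concentration, 48-hour dose response in 96-well plates underlies each endpoint, interpolated linearly between surrounding concentrations. GI50 marks 50% less growth. TGI marks complete inhibition of growth.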

Assays:
Experiment in all cases: DTP human tumour cell line panel, 48 h
[1] = test system: A498 renal
[2] = test system: A549 NSCLC
[3] = test system: ACHN renal
[4] = test system: BT-549 breast
[5] = test system: CAKI-1 renal
[6] = test system: CCRF-CEM leukemia
[7] = test system: COLO 205 colon
[8] = test system: DU-145 prostate
[9] = test system: EKVX NSCLC
[10] = test system: HCC-2998 colon
[11] = test system: HCT-116 colon
[12] = test system: HCT-15 colon
[13] = test system: HL-60(TB) leukemia
[14] = test system: HOP-62 NSCLC
[15] = test system: HOP-92 NSCLC
[16] = test system: HS 578T breast
[17] = test system: HT29 colon
[18] = test system: IGROV1 ovarian
[19] = test system: K-562 leukemia
[20] = test system: KM12 colon
[21] = test system: LOX IMVI melanoma
[22] = test system: M14 melanoma
[23] = test system: MALME-3M melanoma
[24] = test system: MCF7 breast
[25] = test system: MDA-MB-231 breast
[26] = test system: MDA-MB-435
[27] = test system: MOLT-4 leukemia
[28] = test system: NCI-H226 lung
[29] = test system: NCI-H23 lung
[30] = test system: NCI-H460 lung
[31] = test system: NCI-H522 lung
[32] = test system: OVCAR-3 ovarian
[33] = test system: OVCAR-4 ovarian
[34] = test system: OVCAR-5 ovarian
[35] = test system: OVCAR-8 ovarian
[36] = test system: PC-3 prostate
[37] = test system: RPMI-8226 leukemia
[38] = test system: RXF 393 renal
[39] = test system: SF-268 CNS
[40] = test system: SF-295 CNS
[41] = test system: SF-539 CNS
[42] = test system: SK-MEL-2 melanoma
[43] = test system: SK-MEL-28 melanoma
[44] = test system: SK-MEL-5 melanoma
[45] = test system: SK-OV-3 ovarian
[46] = test system: SN12C renal
[47] = test system: SNB-19 CNS
[48] = test system: SNB-75 CNS
[49] = test system: SW-620 colon
[50] = test system: T-47D breast
[51] = test system: TK-10 renal
[52] = test system: U251 CNS
[53] = test system: UACC-257 melanoma
[54] = test system: UACC-62 melanoma
[55] = test system: UO-31 renal

NCCOc1ncccc1/C=C1\C2C=CC=CC2C2C=CC(F)=CC12 (stereo not given)
GI50 [1]: 1530 nM
TGI [1]: 3490 nM
GI50 [2]: 268 nM
TGI [2]: 2040 nM
GI50 [3]: 347 nM
TGI [3]: 1400 nM
GI50 [4]: 2640 nM
TGI [4]: 10800 nM
GI50 [5]: 429 nM
TGI [5]: 1870 nM
GI50 [6]: 260 nM
TGI [6]: 5080 nM
GI50 [7]: 1110 nM
TGI [7]: 2630 nM
GI50 [8]: 531 nM
TGI [8]: 1990 nM
GI50 [9]: 1200 nM
TGI [9]: 3050 nM
GI50 [10]: 1250 nM
TGI [10]: 2570 nM
GI50 [11]: 1130 nM
TGI [11]: 2600 nM
GI50 [12]: 757 nM
TGI [12]: 2280 nM
GI50 [13]: 334 nM
TGI [13]: 1420 nM
GI50 [14]: 1060 nM
TGI [14]: 2680 nM
GI50 [15]: 258 nM
TGI [15]: 2190 nM
GI50 [16]: 2550 nM
TGI [16]: 13100 nM
GI50 [17]: 1450 nM
TGI [17]: 3290 nM
GI50 [18]: 1160 nM
TGI [18]: 2470 nM
GI50 [19]: 1010 nM
TGI [19]: 3130 nM
GI50 [20]: 1470 nM
TGI [20]: 2970 nM
GI50 [21]: 583 nM
TGI [21]: 1960 nM
GI50 [22]: 1350 nM
TGI [22]: 3050 nM
GI50 [23]: 1420 nM
TGI [23]: 3170 nM
GI50 [24]: 394 nM
TGI [24]: 1730 nM
GI50 [25]: 1640 nM
TGI [25]: 3260 nM
GI50 [26]: 1810 nM
TGI [26]: 3350 nM
GI50 [27]: 232 nM
TGI [27]: 1100 nM
GI50 [28]: 1020 nM
TGI [28]: 2470 nM
GI50 [29]: 666 nM
TGI [29]: 3010 nM
GI50 [30]: 283 nM
TGI [30]: 1460 nM
GI50 [31]: 1690 nM
TGI [31]: 4090 nM
GI50 [32]: 1450 nM
TGI [32]: 2770 nM
GI50 [33]: 2700 nM
TGI [33]: 10100 nM
GI50 [34]: 1690 nM
TGI [34]: 3400 nM
GI50 [35]: 1190 nM
TGI [35]: 3480 nM
GI50 [36]: 1150 nM
TGI [36]: 2450 nM
GI50 [37]: 1580 nM
TGI [37]: 3850 nM
GI50 [38]: 1570 nM
TGI [38]: 3170 nM
GI50 [39]: 1410 nM
TGI [39]: 11000 nM
GI50 [40]: 467 nM
TGI [40]: 1810 nM
GI50 [41]: 1310 nM
TGI [41]: 2610 nM
GI50 [42]: 2030 nM
TGI [42]: 4360 nM
GI50 [43]: 1510 nM
TGI [43]: 2900 nM
GI50 [44]: 1470 nM
TGI [44]: 2790 nM
GI50 [45]: 735 nM
TGI [45]: 2330 nM
GI50 [46]: 333 nM
TGI [46]: 1350 nM
GI50 [47]: 816 nM
TGI [47]: 14100 nM
GI50 [48]: 1500 nM
TGI [48]: 5670 nM
GI50 [49]: 1070 nM
TGI [49]: 2660 nM
GI50 [50]: 2070 nM
TGI [50]: 6150 nM
GI50 [51]: 1960 nM
TGI [51]: 4310 nM
GI50 [52]: 622 nM
TGI [52]: 2060 nM
GI50 [53]: 1760 nM
TGI [53]: 3860 nM
GI50 [54]: 1360 nM
TGI [54]: 2880 nM
GI50 [55]: 1310 nM
TGI [55]: 3060 nM
